Measured values from US9622995B2, “Treatment of disorders associated with G protein-coupled receptor 35 (GPR35)” (TEMPLE UNIVERSITY—OF THE COMMONWEALTH SYSTEM OF HIGHER …, priority 2009, dated 2017).
Like-named read-outs stand apart in the source and are kept apart here.

Key:
GPR35a [1] = target: T1, GPR35a (Homo sapiens, UniProt Q9HC97, S294R); test: β-arrestin2-GFP redistribution/aggregation in UGPR35β cells; format: cell-based; parameters: expressed in transfected cells; conditions: for activation of GPR35 (distribution of βarr2-GFP different from basal state): concentrations up to 30 μM; for potency as GPR35 agonist, in words: compared with the binaphthyl compounds
T1 sequence (Q9HC97 whole entry S294R): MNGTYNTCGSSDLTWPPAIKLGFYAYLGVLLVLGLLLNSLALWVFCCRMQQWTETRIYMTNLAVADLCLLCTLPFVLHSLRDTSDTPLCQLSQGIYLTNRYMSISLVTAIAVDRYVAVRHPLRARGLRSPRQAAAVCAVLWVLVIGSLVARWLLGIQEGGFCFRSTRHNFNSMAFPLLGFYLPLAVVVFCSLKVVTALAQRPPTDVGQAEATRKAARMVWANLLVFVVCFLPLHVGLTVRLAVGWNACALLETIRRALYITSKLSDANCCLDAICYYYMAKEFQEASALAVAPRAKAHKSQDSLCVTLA
Source text: This cellular assay utilizes the intracellular β-arrestin protein as a reporter of receptor activity. […] Upon agonist-mediated GPCR activation, β-arrestins rapidly redistribute en masse to ligand-activated plasma membrane receptors (on the other hand, β-arrestins remain in the cytosol upon antagonist binding to the receptor). Activated GPCR/β-arrestin complexes will concentrate in clathrin-coated pits and/or internal vesicles where most GPCRs normally undergo internalization. At this juncture, the β-arrestin either (i) dissociates and returns to the cytoplasm, or (ii) further redistributes with the receptor into an intracellular endosomal vesicle, depending on the receptor type. It is the agonist-induced redistribution of β-arrestin-GFP into progressively smaller compartments (cytosolic compartment>plasma membrane>coated pit>endosomal compartment) that enables imaging of receptor activation.
This cell line is herein referred to as UGPR35β. Selected cells were maintained at 200 μg/ml G418® and 100 μg/ml Zeocin® at 37° C. and 5% CO2.
U20S cells expressing HA-GPR35a/βarr2-GFP (also known as UGPR35β cells) were plated in a 24-well plate onto coverslips that were coated with poly-D-lysine (0.02 mg/ml; Sigma-Aldrich, St. Louis, Mo., USA) for 1 hour. Cells were maintained at 37° C., 5% CO2 until ready for experiment (90% confluent). Cells were washed once with Hanks' balanced salt solution (HBSS, Cellgro, Mediatech, Inc, Manassas, Va., USA) comprising CaCl2 0.14 g/L, KCl 0.4 g/L, KH2PO4 0.06 g/L, MgSO4 0.097 g/L, NaCl 8 g/L, Na2HPO4 0.047 g/L, NaHCO3 0.35 g/L, and D-glucose 1.0 g/L. For receptor activation, agonist-evoked redistribution of βarr2-GFP was measured by applying the drug for 40 minutes. For measuring the effects of antagonist, agonist and antagonist were co-applied.
Cells were then fixed with 4% paraformaldehyde for 20 minutes at room temperature, followed by three washes with HBSS.
βarr2-GFP aggregates were identified by a wavelet-based, Microsoft Windows-compatible computer program written in the MatLab programming environment. A program algorithm extracts from two dimensional images those pixels that generate objects of interest that fall within a predetermined range of sizes and intensities and that are embedded among widely varying local backgrounds (L. Barak, available from the Duke University GPCR Assay Bank). Concentration-effect curves for agonist-mediated receptor activation were analyzed by non-linear regression techniques using GraphPad Prism 4.0 software (GraphPad) and data were fitted to sigmoidal dose-response curves to obtain EC50 or IC50 values. Statistical analysis was performed using one-way analysis of variance (ANOVA) followed by Dunnett's post-test or two-tailed unpaired student t test. P values of <0.05 are considered significant.
A prototypical U2OS osteosarcoma cell line that permanently expresses β-arrestin-GFP and N-terminal triple HA-tagged human GPR35a was used to screen ligands for agonism or antagonism against the GPR35 receptor. […] Endogenous receptors are invisible to the assay because there are too few endogenous receptors of any type compared to the number of β-arrestin molecules in the cell to provide a measurable response.
Upon agonist-mediated GPCR activation, β-arrestins rapidly redistribute en masse to ligand-activated plasma membrane receptors, and then the activated GPCR/arrestin complexes concentrate in clathrincoated pits and/or internal vesicles.
Concentration response curves for β-arrestin2 aggregation were obtained for compounds of interest. For this study, UGPR35β cells were treated with different concentrations of a compound of interest and images of the cells (acquired in triplicate in three or more independent experiments) were analyzed for fluorescence.

GPR35a [2] = target: T1, GPR35a; conditions: 3 μM; data not shown
GPR35 = GPR35 (Homo sapiens, UniProt Q9HC97, S294R); conditions: UGPR35β cells
Chain of GPR35 (Q9HC97 whole entry S294R): as above
Procedure: Loss of cell surface receptor may be evaluated by methods such as On-Cell Western analysis of the cells under treatment.
In a non-limiting example, a cell line that expresses N-terminal triple HA-tagged GPR35 receptor is used. After contacting the cells with a candidate GPR35 agonist and incubating the system for a set period of time, the cells are incubated with an anti-HA mouse antibody, followed by incubation with a fluorophore-labeled anti-mouse antibody. The resulting observed fluorescence is then used to assess the level of GPR35 receptor on the cell surface.
The previously described U2OS cells expressing HA-GPR35a/βarr2-GFP (also known as UGPR35β cells) were seeded and grown until confluence on the bottoms of a 96-well plate. […] Cells were washed once with Hanks' balanced salt solution (HBSS, Cellgro, Mediatech, Inc, Manassas, Va., USA) prior to appropriate drug treatment and then fixed with 4% formaldehyde for 20 minutes at room temperature. This step was followed by three washes with PBS for 5 minutes each.
The secondary antibody (IRDye 800 conjugated anti-mouse IgG, Rockland, Gilbertsville, Pa.; 1:1000 in LI-COR Odyssey® blocking buffer) was then added to the treated cells and incubated for 1 hour at room temperature protected from light.
Cells grown on coverslips were incubated over ice for 40 minutes with a 1:500 dilution of mouse monoclonal anti-HA antibody in blocking buffer (3% BSA in PBS), followed by three consecutive washes with PBS. […] Antibody-labeled cells were treated with agonist alone or in combination with antagonist for 40 minutes at 37° C., and the cells were then imaged.
On-Cell western analysis was performed using a LI-COR odyssey infra-red imager to quantify ligand potency to induce loss of cell surface receptor.
For each concentration of the compound of interest, the intensity of labeling was measured using immunofluorescence. The readings were plotted against the compound concentrations, yielding binding curves that allowed the calculation of EC50 values (FIGS. 6C-E).

[3] = concentration response analysis, read-out: β-arrestin response (EC50)

Compound	activation of GPR35 (distribution of βarr2-GFP different from basal state) (GPR35a [1])	also measured
5-(4-chloro-3-methylphenyl-1-[(4-methylphenyl)methyl]-N-[(1S,2S,4R)-1,3,3-trimethylbicyclo[2.2.1]hept-2-yl]-1H-pyrazole-3-carboxamide [SR144528]	None of the compounds at concentrations up to 30 μM activated GPR35	–
CCCCCCC(C)(C)c1cc(O)c2c(c1)OC(C)(C)C1CCC(C)CC21 (stereo not shown) [AM4056, 1-hydroxy-1′,1′-dimethylheptylhexahydrocannabinol]	None of the compounds at concentrations up to 30 μM activated GPR35	–
CCCCCCC(C)(C)c1ccc([C@@H]2C[C@H](O)CC[C@H]2CCCO)c(O)c1 [CP55,940, 2-[(1R,2R,5R)-5-hydroxy-2-(3-hydroxypropyl)cyclohexyl]-5-(2-methyloctan-2-yl)phenol]	None of the compounds at concentrations up to 30 μM activated GPR35	–
O=C(O)c1cc2cc(Br)ccc2c(Cc2c(O)c(C(=O)O)cc3cc(Br)ccc23)c1O [Compound 3, 7,7′-dibromo-pamoic acid]	–	EC50 (GPR35a [1]; [3]): 169 nM
O=C(O)c1cc2ccccc2c(-c2c(O)c(C(=O)O)cc3ccccc23)c1O [Compound 4, 1,1′-binaphthyl-2,2′-diol-3,3′-dicarboxylic acid]	–	EC50 (GPR35a [1]; [3]): 286 nM
O=C(O)c1cc([N+](=O)[O-])ccc1NCCCc1ccccc1 [Compound 6, 5-Nitro-2-(3-phenylpropylamino)-benzoic acid]	–	EC50 (GPR35a [1]; mean (95% confidence interval in brackets in the text), read-out: EC50 for β-arrestin2 aggregation): 4300 nM
O=C(O)c1cc2cc(Br)ccc2cc1O [Compound 7, 7-bromo-3-hydroxy-2-naphthoic acid]	–	potency as GPR35 agonist, in words (GPR35a [1]): much less potent; EC50 (GPR35a [1]; [3]): 6900 nM
O=C(O)c1cc2ccccc2cc1O [Compound 8, 3-hydroxy-2-naphthoic acid]	–	potency as GPR35 agonist, in words (GPR35a [1]): much less potent; EC50 (GPR35a [1]; [3]): 86000 nM
C=C(C)[C@@H]1CCC(C)=C[C@H]1c1c(C)cc(O)cc1O [Compound O-1602, 5-methyl-4-[(1R,6R)-3-methyl-6-(1-methyethenyl)-2-cyclohexen-1-yl]-1,3-benzenediol]	None of the compounds at concentrations up to 30 μM activated GPR35	–
N#CC(=C(N)Sc1ccccc1N)C(C#N)=C(N)Sc1ccccc1N [Compound U0126, 1,4-diamino-2,3-dicyano-1,4-bis(2-aminophenylthio)-butadiene]	–	effect on ERK1/2 activation (GPR35a [2]): inhibited ERK1/2 activation; effect on pamoic acid-induced ERK activation (GPR35a [2]): abolished pamoic acid-induced ERK activation
CCCCCCC(C)(C)c1cc(O)c2c(c1)OC(C)(C)[C@@H]1CC=C(CO)C[C@@H]21 [HU-210, (6aR,10aR)-9-(hydroxymethyl)-6,6-dimethyl-3-(2-methyloctan-2-yl)-6a,7,10,10a-tetrahydrobenzo[c]chromen-1-ol]	None of the compounds at concentrations up to 30 μM activated GPR35	–
CCCn1c(C)c(C(=O)c2cccc3ccccc23)c2ccccc21 [JWH-015, (2-methyl-1-propyl-1H-indol-3-yl)-1-naphthalenylmethanone]	None of the compounds at concentrations up to 30 μM activated GPR35	–
Cc1c(/C=N/N2CCCCC2)nn(-c2ccc(Cl)cc2Cl)c1-c1ccc(Cl)cc1 [PIMSR1, 5-(4-chlorophenyl)-1-(2,4-dichlorophenyl)-4-methyl-3-[(E)-piperidinoiminomethyl]-1H-pyrazole]	None of the compounds at concentrations up to 30 μM activated GPR35	–
Cc1c(/C=C/C2CCCCC2)nn(-c2ccc(Cl)cc2Cl)c1-c1ccc(Cl)cc1 [VCHSR1, 5-(4-chlorophenyl)-3-[(E)-2-cyclohexylethenyl]-1-(2,4-dichlorophenyl)-4-methyl-1H-pyrazole]	None of the compounds at concentrations up to 30 μM activated GPR35	–
Cc1c(C(=O)c2cccc3ccccc23)c2cccc3c2n1[C@H](CN1CCOCC1)CO3 [WIN55212-2, (R)-(+)-[2,3-dihydro-5-methyl-3-(4-morpholinylmethyl)pyrrolo[1,2,3-de)-1,4-benzoxazin-6-yl]-1-napthalenylmethanone]	None of the compounds at concentrations up to 30 μM activated GPR35	–
CCCCC/C=C\C/C=C\C/C=C\C/C=C\CCCC(=O)NCCO [anandamide]	None of the compounds at concentrations up to 30 μM activated GPR35	–
C=C(C)[C@@H]1CCC(C)=C[C@H]1c1c(O)cc(CCCCC)cc1O [cannabidiol]	None of the compounds at concentrations up to 30 μM activated GPR35	–
CCCCCc1cc(O)c2c(c1)OC(C)(C)c1ccc(C)cc1-2 [cannabinol]	None of the compounds at concentrations up to 30 μM activated GPR35	–
CCCCCc1cc(O)c2c(c1)OC(C)(C)[C@@H]1CCC(C)=C[C@@H]21 [delta-9-tetrahydrocannabinol]	None of the compounds at concentrations up to 30 μM activated GPR35	–
lysophosphatidic acid	None of the compounds at concentrations up to 30 μM activated GPR35	–
lysophosphatidylinositol	None of the compounds at concentrations up to 30 μM activated GPR35	–
oxantel pamoate [Compound 2]	–	log EC50 of GPR35 internalization (GPR35; On-Cell Western, log(EC50)): −7.772; EC50 (GPR35; read-out: EC50 of GPR35 internalization, On-Cell Western, corresponds to the log EC50): 17 nM; EC50 (GPR35a [1]; [3]): 91 nM
pyrantel tartrate	–	activity in GPR35 internalization assay, in words (GPR35): inactive
